Laboratory results reported in ChEMBL document CHEMBL1128044, “Dichotomin A, a new cyclic hexapeptide from Stellaria dichotoma L. var. lanceolata Bge” (Bioorg Med Chem Lett, 1995).
Values after ≈ are worked out from the molar mass of the structure shown. Residues, ends and D or L forms follow the SMILES beside them.

Test system: P388
Assay: Tested for inhibitory activity against p-388 lymphocytic leukemia cells
Format: functional, cell-based
Conditions: Mus musculus

IC50: 2.5 µg/mL (≈ 3.67 µM)
Compound: CC(C)C[C@@H]1NC(=O)[C@H](Cc2ccccc2)NC(=O)[C@H]([C@@H](C)O)NC(=O)CNC(=O)[C@H](C(C)C)NC(=O)[C@H](Cc2ccc(O)cc2)NC1=O (HELM PEPTIDE1{F.L.Y.V.G.T}$PEPTIDE1,PEPTIDE1,1:R1-6:R2$$$V2.0)
